Values of other authors as cited in patent US8273780B2, “Polycyclic antagonists of lysophosphatidic acid receptors” (Amira Pharmaceuticals, Inc., priority 2009, dated 2012).

Key:
[1] = test system: UUO mice; conditions: in LPA1 (−/−) mice renal fibrosis was significantly attenuated; cited from earlier work
[2] = test system: pancreatic cancer cell lines; conditions: in response to LPA and peritoneal fluid (ascites) from pancreatic cancer patients; cited from earlier work
[3] = test system: highly peritoneal metastatic pancreatic cancer cell line; conditions: LPA-induced and ascites-induced; cited from earlier work

## Cc1noc(-c2ccc(CSCCC(=O)O)cc2)c1NC(=O)OC(C)c1ccccc1Cl (stereo not drawn) [Ki16425]
[1]
  development of renal fibrosis: closely resembled the LPA1 (−/−) mice
[2]
  in vitro migration: effectively blocked
[3]
  invasion activity: blocked
